Results taken from publication PMC7316778 (Nature Communications, 2020).
Several values for one entry are separate records, joined by “and”; a condition that tells them apart may be missing. Equal entries are not always repeated. Where two headings read alike, the source gives them in different places.

Tests used:
Test in all cases: SelectScreen kinase assay
CDK5/p35 = CDK5/p35 (Homo sapiens, UniProt Q00535)
Experimental: (§1) Selectivity profiling assays were performed by the Invitrogen SelectScreen™ Services. […] The concentration of ATP was selected to be equal to the KM, unless indicated otherwise.

CAMKK1 (CAMKKA) = CAMKK1 (CAMKKA) (Homo sapiens, UniProt Q8N5S9)
Experimental: as §1

MAP3K14 (NIK) = MAP3K14 (NIK) (Homo sapiens, UniProt Q99558)
Sequence of MAP3K14 (NIK) (Q99558 whole entry): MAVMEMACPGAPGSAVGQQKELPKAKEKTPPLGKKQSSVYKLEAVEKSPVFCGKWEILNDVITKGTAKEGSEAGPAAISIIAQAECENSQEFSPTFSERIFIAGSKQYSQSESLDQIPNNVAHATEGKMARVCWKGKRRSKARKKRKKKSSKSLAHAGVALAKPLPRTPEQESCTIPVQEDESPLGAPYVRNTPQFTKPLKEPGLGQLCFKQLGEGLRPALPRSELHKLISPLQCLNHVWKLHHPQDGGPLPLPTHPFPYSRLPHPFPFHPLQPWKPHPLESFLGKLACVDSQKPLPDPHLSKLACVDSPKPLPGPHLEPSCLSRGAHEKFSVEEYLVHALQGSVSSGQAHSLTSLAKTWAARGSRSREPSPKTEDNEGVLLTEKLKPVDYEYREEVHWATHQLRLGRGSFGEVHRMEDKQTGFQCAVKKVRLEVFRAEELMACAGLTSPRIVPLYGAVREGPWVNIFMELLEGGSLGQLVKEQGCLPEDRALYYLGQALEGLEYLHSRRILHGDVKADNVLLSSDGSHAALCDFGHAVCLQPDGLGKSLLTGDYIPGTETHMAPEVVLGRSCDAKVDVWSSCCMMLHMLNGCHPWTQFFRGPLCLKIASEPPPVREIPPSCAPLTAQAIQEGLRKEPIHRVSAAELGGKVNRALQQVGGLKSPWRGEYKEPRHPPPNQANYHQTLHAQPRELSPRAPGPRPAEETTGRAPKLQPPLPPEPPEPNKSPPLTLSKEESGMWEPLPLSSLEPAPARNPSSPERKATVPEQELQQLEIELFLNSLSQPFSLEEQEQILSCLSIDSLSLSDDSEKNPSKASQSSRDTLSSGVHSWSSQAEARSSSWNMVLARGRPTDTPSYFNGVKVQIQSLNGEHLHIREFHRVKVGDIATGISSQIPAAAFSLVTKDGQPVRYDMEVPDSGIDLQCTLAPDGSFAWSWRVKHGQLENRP
Experimental: as §1

AKT2 (PKB beta) = AKT2 (PKB beta) (Homo sapiens, UniProt P31751); settings: for Inhibition at 1 µM (%): AKT2 (PKB beta), ZLYTE, ATP Km app
Sequence of AKT2 (PKB beta) (P31751 whole entry): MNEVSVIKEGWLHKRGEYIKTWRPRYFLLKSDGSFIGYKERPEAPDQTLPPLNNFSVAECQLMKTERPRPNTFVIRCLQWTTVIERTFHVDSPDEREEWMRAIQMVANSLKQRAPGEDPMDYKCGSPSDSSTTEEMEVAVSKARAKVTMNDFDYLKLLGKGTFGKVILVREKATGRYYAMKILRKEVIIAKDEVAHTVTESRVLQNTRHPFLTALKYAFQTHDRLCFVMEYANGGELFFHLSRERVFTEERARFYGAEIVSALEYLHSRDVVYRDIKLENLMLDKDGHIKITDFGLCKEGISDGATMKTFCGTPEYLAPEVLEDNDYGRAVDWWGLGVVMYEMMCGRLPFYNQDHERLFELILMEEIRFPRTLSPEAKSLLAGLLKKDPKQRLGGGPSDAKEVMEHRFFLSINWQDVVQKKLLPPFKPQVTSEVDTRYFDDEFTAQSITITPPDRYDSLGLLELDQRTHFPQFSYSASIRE
Experimental: as §1

IGF1R = IGF1R (Homo sapiens, UniProt P08069)
Experimental: as §1

JAK3 = biological target: T1, JAK3 (Homo sapiens, UniProt P52333)
T1 sequence (P52333 1-1124): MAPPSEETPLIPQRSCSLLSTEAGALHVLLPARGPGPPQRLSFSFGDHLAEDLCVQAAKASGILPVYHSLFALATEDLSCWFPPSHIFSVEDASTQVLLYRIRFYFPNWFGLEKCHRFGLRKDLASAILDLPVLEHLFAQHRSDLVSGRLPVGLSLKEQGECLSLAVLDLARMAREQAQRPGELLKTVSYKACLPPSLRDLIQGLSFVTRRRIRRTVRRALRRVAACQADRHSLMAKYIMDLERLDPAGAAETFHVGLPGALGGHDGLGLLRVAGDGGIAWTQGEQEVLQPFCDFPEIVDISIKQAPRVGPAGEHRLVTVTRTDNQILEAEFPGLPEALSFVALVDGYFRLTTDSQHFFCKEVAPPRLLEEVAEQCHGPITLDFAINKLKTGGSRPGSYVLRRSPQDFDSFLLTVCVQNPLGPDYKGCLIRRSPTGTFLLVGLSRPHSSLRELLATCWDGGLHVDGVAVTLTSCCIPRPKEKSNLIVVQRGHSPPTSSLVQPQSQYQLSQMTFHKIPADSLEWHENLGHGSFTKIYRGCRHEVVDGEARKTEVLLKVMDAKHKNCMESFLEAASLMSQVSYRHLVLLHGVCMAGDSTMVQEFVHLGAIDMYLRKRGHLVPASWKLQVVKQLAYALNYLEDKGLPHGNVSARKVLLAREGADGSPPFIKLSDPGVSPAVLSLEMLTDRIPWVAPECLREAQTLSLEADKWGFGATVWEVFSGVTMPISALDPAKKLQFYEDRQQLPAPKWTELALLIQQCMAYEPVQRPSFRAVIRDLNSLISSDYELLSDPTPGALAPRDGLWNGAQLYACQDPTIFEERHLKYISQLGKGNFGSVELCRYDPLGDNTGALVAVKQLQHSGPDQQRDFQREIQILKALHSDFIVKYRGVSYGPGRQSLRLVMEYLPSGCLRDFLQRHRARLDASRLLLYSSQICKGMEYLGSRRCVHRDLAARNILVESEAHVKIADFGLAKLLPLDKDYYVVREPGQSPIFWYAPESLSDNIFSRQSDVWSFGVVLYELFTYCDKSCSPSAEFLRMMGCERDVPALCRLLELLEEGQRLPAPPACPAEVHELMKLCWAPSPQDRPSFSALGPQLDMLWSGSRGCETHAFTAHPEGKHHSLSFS
Experimental: as §1

MAPK12 (p38 gamma) = biological target: T2, MAPK12 (p38 gamma) (Homo sapiens, UniProt P53778)
T2 sequence (P53778 1-367): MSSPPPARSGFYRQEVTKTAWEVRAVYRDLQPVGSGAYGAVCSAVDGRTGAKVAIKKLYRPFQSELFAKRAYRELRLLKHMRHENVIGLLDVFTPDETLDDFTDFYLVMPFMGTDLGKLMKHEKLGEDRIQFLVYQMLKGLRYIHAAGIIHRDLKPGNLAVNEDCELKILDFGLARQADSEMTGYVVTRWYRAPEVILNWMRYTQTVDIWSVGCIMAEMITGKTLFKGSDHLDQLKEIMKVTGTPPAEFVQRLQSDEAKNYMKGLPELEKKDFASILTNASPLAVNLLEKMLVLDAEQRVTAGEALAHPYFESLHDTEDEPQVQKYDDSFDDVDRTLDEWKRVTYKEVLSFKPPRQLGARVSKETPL
Experimental: as §1

MAP3K3 (MEKK3) = MAP3K3 (MEKK3) (Homo sapiens, UniProt Q99759)
Experimental: as §1

IKBKB (IKK beta) = IKBKB (IKK beta) (Homo sapiens, UniProt O14920)
Experimental: as §1

SPHK1 = SPHK1 (Homo sapiens, UniProt Q9NYA1)
Sequence of SPHK1 (Q9NYA1 whole entry): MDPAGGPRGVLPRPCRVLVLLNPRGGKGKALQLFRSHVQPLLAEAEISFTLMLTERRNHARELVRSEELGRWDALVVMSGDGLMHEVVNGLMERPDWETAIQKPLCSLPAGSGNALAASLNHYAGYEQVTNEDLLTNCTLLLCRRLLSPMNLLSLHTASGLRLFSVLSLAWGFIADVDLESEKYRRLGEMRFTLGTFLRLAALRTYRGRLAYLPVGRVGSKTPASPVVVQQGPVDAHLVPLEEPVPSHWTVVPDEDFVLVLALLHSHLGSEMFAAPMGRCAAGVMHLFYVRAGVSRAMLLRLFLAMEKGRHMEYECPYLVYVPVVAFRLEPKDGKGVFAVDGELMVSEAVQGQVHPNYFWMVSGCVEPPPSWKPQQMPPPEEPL
Experimental: as §1

MELK = MELK (Homo sapiens, UniProt Q14680)
Experimental: as §1

MAP3K19 (YSK4) = MAP3K19 (YSK4) (Homo sapiens, UniProt Q56UN5)
Sequence of MAP3K19 (YSK4) (Q56UN5 whole entry): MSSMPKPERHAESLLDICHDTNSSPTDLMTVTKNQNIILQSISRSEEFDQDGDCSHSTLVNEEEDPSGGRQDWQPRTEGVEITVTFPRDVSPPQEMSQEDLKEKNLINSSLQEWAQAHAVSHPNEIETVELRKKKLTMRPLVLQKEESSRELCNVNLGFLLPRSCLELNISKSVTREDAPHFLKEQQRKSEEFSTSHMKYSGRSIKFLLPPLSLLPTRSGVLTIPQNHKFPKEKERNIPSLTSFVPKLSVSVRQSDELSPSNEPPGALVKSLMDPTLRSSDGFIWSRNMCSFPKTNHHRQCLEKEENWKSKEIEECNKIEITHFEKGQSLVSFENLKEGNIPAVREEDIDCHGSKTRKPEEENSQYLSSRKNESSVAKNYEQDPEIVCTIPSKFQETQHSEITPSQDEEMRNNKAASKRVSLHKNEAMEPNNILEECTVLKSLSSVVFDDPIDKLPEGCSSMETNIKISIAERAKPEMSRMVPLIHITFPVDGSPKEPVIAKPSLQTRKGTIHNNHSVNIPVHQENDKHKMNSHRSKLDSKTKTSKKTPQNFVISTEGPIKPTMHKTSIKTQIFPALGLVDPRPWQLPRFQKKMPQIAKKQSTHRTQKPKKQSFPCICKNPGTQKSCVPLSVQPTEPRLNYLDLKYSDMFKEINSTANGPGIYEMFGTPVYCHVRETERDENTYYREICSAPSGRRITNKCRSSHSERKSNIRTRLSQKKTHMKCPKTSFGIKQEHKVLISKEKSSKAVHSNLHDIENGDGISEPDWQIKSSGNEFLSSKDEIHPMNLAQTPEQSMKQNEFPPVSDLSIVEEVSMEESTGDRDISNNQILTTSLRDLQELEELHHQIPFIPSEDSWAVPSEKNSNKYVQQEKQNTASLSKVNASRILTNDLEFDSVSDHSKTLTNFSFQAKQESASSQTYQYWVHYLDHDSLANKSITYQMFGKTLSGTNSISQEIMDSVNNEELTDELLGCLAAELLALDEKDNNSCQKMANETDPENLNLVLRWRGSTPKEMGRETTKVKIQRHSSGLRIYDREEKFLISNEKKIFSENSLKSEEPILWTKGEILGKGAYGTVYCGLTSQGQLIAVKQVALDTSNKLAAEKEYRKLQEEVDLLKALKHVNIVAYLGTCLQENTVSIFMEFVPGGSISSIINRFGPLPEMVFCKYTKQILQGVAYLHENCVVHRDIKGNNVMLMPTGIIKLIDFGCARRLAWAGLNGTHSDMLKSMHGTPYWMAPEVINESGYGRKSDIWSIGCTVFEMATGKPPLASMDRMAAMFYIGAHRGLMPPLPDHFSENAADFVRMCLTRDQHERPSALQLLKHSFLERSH
Experimental: as §1

SIK3 = SIK3 (Homo sapiens, UniProt Q9Y2K2)
Sequence of SIK3 (Q9Y2K2 whole entry): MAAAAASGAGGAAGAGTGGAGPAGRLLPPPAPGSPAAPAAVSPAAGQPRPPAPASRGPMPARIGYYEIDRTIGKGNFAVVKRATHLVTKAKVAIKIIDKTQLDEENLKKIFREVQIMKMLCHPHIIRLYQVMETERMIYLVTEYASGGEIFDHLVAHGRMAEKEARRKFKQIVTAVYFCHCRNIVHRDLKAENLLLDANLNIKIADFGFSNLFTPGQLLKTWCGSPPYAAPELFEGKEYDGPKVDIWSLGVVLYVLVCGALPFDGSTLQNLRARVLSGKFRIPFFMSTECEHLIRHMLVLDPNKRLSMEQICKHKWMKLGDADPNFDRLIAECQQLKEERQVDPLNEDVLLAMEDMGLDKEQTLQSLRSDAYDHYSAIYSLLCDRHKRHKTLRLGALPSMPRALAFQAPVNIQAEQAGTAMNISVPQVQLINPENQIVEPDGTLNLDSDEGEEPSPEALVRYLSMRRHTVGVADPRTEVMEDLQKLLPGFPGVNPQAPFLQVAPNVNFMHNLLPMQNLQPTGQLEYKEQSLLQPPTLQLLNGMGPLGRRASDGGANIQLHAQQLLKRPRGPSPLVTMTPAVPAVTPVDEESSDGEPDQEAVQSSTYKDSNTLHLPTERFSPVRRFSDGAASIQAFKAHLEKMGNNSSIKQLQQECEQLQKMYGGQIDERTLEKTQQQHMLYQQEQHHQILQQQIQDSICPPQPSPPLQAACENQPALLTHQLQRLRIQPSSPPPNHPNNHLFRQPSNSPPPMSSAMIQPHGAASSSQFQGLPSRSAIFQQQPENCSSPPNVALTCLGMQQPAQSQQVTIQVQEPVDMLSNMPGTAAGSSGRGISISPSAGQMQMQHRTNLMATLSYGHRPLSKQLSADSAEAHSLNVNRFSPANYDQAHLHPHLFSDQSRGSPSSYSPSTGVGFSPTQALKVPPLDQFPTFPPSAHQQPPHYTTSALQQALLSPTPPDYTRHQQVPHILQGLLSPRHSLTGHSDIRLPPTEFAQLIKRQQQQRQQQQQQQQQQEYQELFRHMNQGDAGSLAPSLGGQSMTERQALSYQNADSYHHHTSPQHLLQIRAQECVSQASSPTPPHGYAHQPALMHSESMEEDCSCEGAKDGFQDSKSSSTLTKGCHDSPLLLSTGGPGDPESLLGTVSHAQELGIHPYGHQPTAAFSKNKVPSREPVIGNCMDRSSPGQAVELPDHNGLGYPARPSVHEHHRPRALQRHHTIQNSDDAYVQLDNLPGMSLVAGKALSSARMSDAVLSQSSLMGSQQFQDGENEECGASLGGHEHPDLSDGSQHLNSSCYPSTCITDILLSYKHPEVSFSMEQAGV
Experimental: as §1

[1] = 1 h, 1 μM WEL028, 1 h preincubation

Sequence of CDK5/p35 (Q00535 whole entry): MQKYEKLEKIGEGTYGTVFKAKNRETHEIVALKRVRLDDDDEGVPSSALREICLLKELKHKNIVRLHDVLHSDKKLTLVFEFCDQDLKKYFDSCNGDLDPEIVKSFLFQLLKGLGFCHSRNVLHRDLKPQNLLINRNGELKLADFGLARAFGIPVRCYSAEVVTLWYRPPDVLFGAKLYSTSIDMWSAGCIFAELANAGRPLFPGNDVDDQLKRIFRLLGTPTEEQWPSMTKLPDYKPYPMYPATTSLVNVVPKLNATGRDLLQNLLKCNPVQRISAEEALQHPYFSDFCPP
Sequence of CDK5/p35 (Q15078 whole entry partner): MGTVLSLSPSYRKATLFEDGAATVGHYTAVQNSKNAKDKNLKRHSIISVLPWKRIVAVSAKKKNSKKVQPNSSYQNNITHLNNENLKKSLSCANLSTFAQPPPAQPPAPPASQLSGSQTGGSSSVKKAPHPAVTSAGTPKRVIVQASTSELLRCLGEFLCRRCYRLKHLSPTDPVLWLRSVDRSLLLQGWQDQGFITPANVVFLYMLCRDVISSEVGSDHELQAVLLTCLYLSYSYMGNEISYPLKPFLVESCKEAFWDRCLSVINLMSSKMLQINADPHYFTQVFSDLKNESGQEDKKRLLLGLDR

Compound: C#CCOc1ccc(Nc2ncc(Cl)c(Nc3ccccc3NC(=O)C=C)n2)c(OC)c1 [Compound 6]
- inhibition at 1 µM (CDK5/p35; [1]): -4%
- Inhibition at 1 µM (%) (CDK5/p35; CDK5/p35, 1 µM, ZLYTE, ATP Km app, listed as WEL028, 1 µM): -8% and 0%
- inhibition at 1 µM (CAMKK1 (CAMKKA); [1]): 22%
- Inhibition at 1 µM (%) (CAMKK1 (CAMKKA); CAMKK1 (CAMKKA), 1 µM, LanthaScreen Binding, listed as WEL028, 1 µM): 24%
- inhibition at 1 µM (CAMKK1 (CAMKKA); read-out: Inhibition at 1 µM (%), CAMKK1 (CAMKKA), 1 µM, LanthaScreen Binding): 20%
- inhibition at 1 µM (MAP3K14 (NIK); [1]): 3%
- Inhibition at 1 µM (%) (MAP3K14 (NIK); MAP3K14 (NIK), 1 µM, LanthaScreen Binding, listed as WEL028, 1 µM): 7% and -1%
- inhibition at 1 µM (AKT2 (PKB beta); [1]): -1%
- Inhibition at 1 µM (%) (AKT2 (PKB beta)): -2%
- Inhibition at 1 µM (%) (AKT2 (PKB beta); listed as WEL028, 1 µM): 0%
- inhibition at 1 µM (IGF1R; [1]): 15%
- inhibition at 1 µM (IGF1R; read-out: Inhibition at 1 µM (%), IGF1R, 1 µM, ZLYTE, ATP Km app): 14%
- inhibition at 1 µM (JAK3; [1]): 14%
- Inhibition at 1 µM (%) (JAK3; JAK3, 1 µM, ZLYTE, ATP Km app, listed as WEL028, 1 µM): 10%
- inhibition at 1 µM (JAK3; read-out: Inhibition at 1 µM (%), JAK3, 1 µM, ZLYTE, ATP Km app): 18%
- inhibition at 1 µM (MAPK12 (p38 gamma); [1]): 10%
- Inhibition at 1 µM (%) (MAPK12 (p38 gamma); MAPK12 (p38 gamma), 1 µM, ZLYTE, ATP Km app, listed as WEL028, 1 µM): 7%
- inhibition at 1 µM (MAPK12 (p38 gamma); read-out: Inhibition at 1 µM (%), MAPK12 (p38 gamma), 1 µM, ZLYTE, ATP Km app): 12%
- inhibition at 1 µM (MAP3K3 (MEKK3); [1]): 7%
- inhibition at 1 µM (MAP3K3 (MEKK3); read-out: Inhibition at 1 µM (%), MAP3K3 (MEKK3), 1 µM, LanthaScreen Binding): 8%
- inhibition at 1 µM (IKBKB (IKK beta); 1 h): 1%
- inhibition at 1 µM (IKBKB (IKK beta); read-out: Inhibition at 1 µM (%)): 1%
- Inhibition at 1 µM (%) (SPHK1; 1 µM, Adapta, ATP Km app, listed as WEL028, 1 µM): 4% and 1%
- inhibition at 1 µM (SPHK1; [1]): 2%
- inhibition at 1 µM (MELK; [1]): -2%
- Inhibition at 1 µM (%) (MELK; MELK, 1 µM, ZLYTE, ATP Km app, listed as WEL028, 1 µM): -3%
- inhibition at 1 µM (MAP3K19 (YSK4); [1]): 0%
- Inhibition at 1 µM (%) (MAP3K19 (YSK4); MAP3K19 (YSK4), 1 µM, ZLYTE, ATP Km app, listed as WEL028, 1 µM): -1% and 1%
- Inhibition (%) (SIK3; 1 μM WEL028, 1 h preincubation): 2%
- Inhibition at 1 µM (%) (SIK3; 1 µM, LanthaScreen Binding, listed as WEL028, 1 µM): 0% and 5%
